Earlier results in patent US8952066B2, “Pharmaceutical/cosmetic, E.G., anti-acne compositions comprising at least one naphthoic acid compound, benzoyl peroxide and at least one film-forming agent” (Galderma Research & Development, priority 2007, dated 2015).
Read-outs that look alike come from different tables or passages of the source.

Key:
[1] = 40° C.
[2] = in presence of the benzoyl peroxide-based formulation

In the case of `O=C(OOC(=O)c1ccccc1)c1ccccc1` [benzoyl peroxide], the Degradation time ([1]; in PEG 400 (0.5 mg/g)) is listed as 1.4 days, the Degradation time ([1]; in ethanol) is listed as 29 days and the Degradation time ([1]; in propylene glycol) is listed as 53 days.

For `COc1ccc(-c2ccc3cc(C(=O)O)ccc3c2)cc1C12CC3CC(CC(C3)C1)C2` [adapalene, 6-[3-(1-adamantyl)-4-methoxyphenyl]-2-naphthoic acid], the “Degradation of the retinoid (in words)” value ([2]; for 24 hours) is given as “no degradation”.

In the case of `CC1=C(/C=C/C(C)=C/C=C/C(C)=C/C(=O)O)C(C)(C)CCC1` [tretinoin], the “Degradation of the retinoid” value ([2]; in 2 hours) is listed as 50% and the “Degradation of the retinoid” value ([2]; in 24 hours) is listed as 95%.
